These are literature values, as cited in patent US20110207823A1, “12-HOUR SUSTAINED-RELEASE METOCLOPRAMIDE” (POSIVISIONARY SOLUTIONS LLP, priority 2008, published 2011).

The conditions of the data set: immediate release dosages.

In the case of `CCN(CC)CCNC(=O)c1cc(Cl)c(N)cc1OC` [metoclopramide, Metoclopramide], the “metoclopramide peaks in plasma with undesirable side effects (akathisia)” value is listed as “above 100 nanograms per milliliter”.
